Measured values reported in US11207431B2, “HDAC6 inhibitors and imaging agents” (The General Hospital Corporation, priority 2017, dated 2021).
Each block holds one compound with its values, some of them ahead of it.

Assays:
HDAC6 [1] = molecular target: T1, HDAC6 (Homo sapiens (Human), UniProt Q9UBN7); experiment: IC50 assay by Nanosyn (Caliper microfluidics mobility shift detection); assay type: biochemical
[2] = Brain penetrance comparison; conditions: in vivo
[3] = tested on: Human iPSC-derived neural progenitor cells; experiment: Acetylation level assay (Western blot); assay type: cell-based; conditions: 6 h at 37° C.; for amount of cellular acetyl-α-Tubulin: other compounds 10 μM; for Histone acetylation (H3K9 and H4K12): 10 μM
HDAC6 [4] = molecular target: HDAC6 (Rattus norvegicus (Rat), UniProt A0A8I6GM68); experiment: Autoradiography competition with radiolabeled Example 2 on rat brain slices; assay type: binding, Sprague-Dawley rat; conditions: Tubastatin A at 100 μM
Description: Sagittal slices of Sprague-Dawley rat brains were sectioned (10 μm) with a cryostat (Thermo Scientific HM550) and mounted onto ColorFrost Plus microscope slides (Fisher Scientific 12-550-18) and stored at −20° C. […] After 15 min, 50 μCi of the radiolabeled compound of Example 2 was added to each bath. After 15 minutes, all slides were washed by dipping 10× into buffer and subsequently submerged in 50 mL baths of buffer at 4° C. for 5 minutes. The slides were dried at 35° C. in a vacuum chamber. A phosphorus screen (Perkin Elmer 7001723) was exposed with the slides for 45 minutes and subsequently imaged with a Cyclone Plus Storage Phosphor (Perkin Elmer) detector. ImageJ was used to apply a Gaussian blur (3.0 radius) smoothing and a lookup table (Royal) with equivalent thresholds for brightness was applied. Raw intensity values from gray and white matter were quantified with the ImageJ measurement tool.

PET/CT imaging in rats = assay type: in vivo, Sprague-Dawley rats
Description: 8 male Sprague-Dawley rats (Charles River Laboratories) were used for PET imaging. […] For intravenous administration, a catheter with an extension line was placed in a lateral tail vein. Each animal received a bolus injection of either vehicle (1:1:8 DMSO/Tween80/saline) or blocking agent in solution (1 mg/kg, 1 mg/mL in 1:1:8 DMSO/Tween80/saline) immediately prior to injection of the radiotracer.
After injection of a radiotracer bolus ([…] Example 2) a 90 min dynamic PET scan was acquired in pairs for all animals. PET scans were performed on a GammaMedica Triumph PET/CT/SPECT scanner, corrected for attenuation with a μ-map derived from the corresponding CT image, which was acquired immediately following the PET scan. The dynamic PET data was binned into 38 timeframes (8×15 s, 8×1 min, 10×2 min, 12×5) and reconstructed individually via an iterative MLEM (maximum likelihood expectation maximization) algorithm in 16 iterations.
PET images were to the CT image acquired from the same animal using AMIDE Data sets were cropped and all further image analysis was conducted using PMOD 3.3 (PMOD Technologies, Zurich, Switzerland). For maximum consistency, the data were coregistered to the Schiffer Px Rat rat brain template and data was derived from a whole brain VOI (volumes of interest) for time activity curves.

HDAC1 [5] = molecular target: T2, HDAC1 (Homo sapiens (Human), UniProt Q13547); experiment: IC50 assay, BPS Biosciences fluorescence assay; assay type: biochemical; conditions: BPS Biosciences fluorescence assay
HDAC2 [6] = molecular target: T3, HDAC2 (Homo sapiens (Human), UniProt Q92769); experiment: IC50 assay, BPS Biosciences fluorescence assay; assay type: biochemical; conditions: BPS Biosciences fluorescence assay
HDAC3 [7] = molecular target: T4, HDAC3 (Homo sapiens (Human), UniProt O15379); experiment: IC50 assay, BPS Biosciences fluorescence assay; assay type: biochemical; conditions: BPS Biosciences fluorescence assay
HDAC4 [8] = molecular target: T5, HDAC4 (Homo sapiens (Human), UniProt P56524); experiment: IC50 assay, BPS Biosciences fluorescence assay; assay type: biochemical
HDAC5 [9] = molecular target: T6, HDAC5 (Homo sapiens (Human), UniProt Q9UQL6); experiment: IC50 assay, BPS Biosciences fluorescence assay; assay type: biochemical
HDAC6 [10] = molecular target: T1, HDAC6; experiment: IC50 assay, BPS Biosciences fluorescence assay; assay type: biochemical
HDAC7 [11] = molecular target: T7, HDAC7 (Homo sapiens (Human), UniProt Q8WUI4); experiment: IC50 assay, BPS Biosciences fluorescence assay; assay type: biochemical
HDAC8 [12] = molecular target: T8, HDAC8 (Homo sapiens (Human), UniProt Q9BY41); experiment: IC50 assay, BPS Biosciences fluorescence assay; assay type: biochemical
HDAC9 [13] = molecular target: T9, HDAC9 (Homo sapiens (Human), UniProt Q9UKV0); experiment: IC50 assay, BPS Biosciences fluorescence assay; assay type: biochemical
HDAC10 [14] = molecular target: T10, HDAC10 (Homo sapiens (Human), UniProt Q969S8); experiment: IC50 assay, BPS Biosciences fluorescence assay; assay type: biochemical; conditions: BPS Biosciences fluorescence assay
HDAC11 [15] = molecular target: T11, HDAC11 (Homo sapiens (Human), UniProt Q96DB2); experiment: IC50 assay, BPS Biosciences fluorescence assay; assay type: biochemical
HDAC4 [16] = molecular target: T5, HDAC4; experiment: IC50 assay by Nanosyn (Caliper microfluidics mobility shift detection); assay type: biochemical; conditions: IC50 measured by Nanosyn
HDAC5 [17] = molecular target: T6, HDAC5; experiment: as above; assay type: biochemical; conditions: IC50 measured by Nanosyn
HDAC7 [18] = molecular target: T7, HDAC7; experiment: as above; assay type: biochemical; conditions: IC50 measured by Nanosyn
HDAC8 [19] = molecular target: T8, HDAC8; experiment: as above; assay type: biochemical; conditions: IC50 measured by Nanosyn
HDAC9 [20] = molecular target: T9, HDAC9; experiment: as above; assay type: biochemical; conditions: IC50 measured by Nanosyn
HDAC1 [21] = molecular target: T2, HDAC1; experiment: as above; assay type: biochemical; conditions: IC50 measured by Nanosyn
Description: (§1) IC50 measurements were conducted by BPS Biosciences (Table 1) or by Nanosyn (Table 1A) with an established fluorescence assay. […] A=Martinostat (Caliper (microfluidics mobility shift detection) by Nanosyn (same run, duplicates));

HDAC10 [22] = molecular target: T10, HDAC10; experiment: as above; assay type: biochemical; conditions: IC50 measured by Nanosyn
Description: as §1

HDAC2 [23] = molecular target: T3, HDAC2; experiment: as above; assay type: biochemical; conditions: IC50 measured by Nanosyn
Description: as §1

HDAC3 [24] = molecular target: T4, HDAC3; experiment: as above; assay type: biochemical; conditions: IC50 measured by Nanosyn
Description: as §1

HDAC11 [25] = molecular target: T11, HDAC11; experiment: as above; assay type: biochemical; conditions: IC50 measured by Nanosyn
[26] = BPS Biosciences fluorescence assay

T11 sequence (Q96DB2 whole entry): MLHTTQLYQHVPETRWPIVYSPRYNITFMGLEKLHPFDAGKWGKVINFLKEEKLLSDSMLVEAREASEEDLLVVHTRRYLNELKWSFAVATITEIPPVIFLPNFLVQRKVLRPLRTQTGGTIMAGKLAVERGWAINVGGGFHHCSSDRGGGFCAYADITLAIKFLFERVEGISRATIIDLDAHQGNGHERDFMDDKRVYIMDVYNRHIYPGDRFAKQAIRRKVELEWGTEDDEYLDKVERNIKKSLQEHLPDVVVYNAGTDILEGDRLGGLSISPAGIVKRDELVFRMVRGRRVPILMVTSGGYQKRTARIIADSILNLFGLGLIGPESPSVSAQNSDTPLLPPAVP
T9 sequence (Q9UKV0 whole entry): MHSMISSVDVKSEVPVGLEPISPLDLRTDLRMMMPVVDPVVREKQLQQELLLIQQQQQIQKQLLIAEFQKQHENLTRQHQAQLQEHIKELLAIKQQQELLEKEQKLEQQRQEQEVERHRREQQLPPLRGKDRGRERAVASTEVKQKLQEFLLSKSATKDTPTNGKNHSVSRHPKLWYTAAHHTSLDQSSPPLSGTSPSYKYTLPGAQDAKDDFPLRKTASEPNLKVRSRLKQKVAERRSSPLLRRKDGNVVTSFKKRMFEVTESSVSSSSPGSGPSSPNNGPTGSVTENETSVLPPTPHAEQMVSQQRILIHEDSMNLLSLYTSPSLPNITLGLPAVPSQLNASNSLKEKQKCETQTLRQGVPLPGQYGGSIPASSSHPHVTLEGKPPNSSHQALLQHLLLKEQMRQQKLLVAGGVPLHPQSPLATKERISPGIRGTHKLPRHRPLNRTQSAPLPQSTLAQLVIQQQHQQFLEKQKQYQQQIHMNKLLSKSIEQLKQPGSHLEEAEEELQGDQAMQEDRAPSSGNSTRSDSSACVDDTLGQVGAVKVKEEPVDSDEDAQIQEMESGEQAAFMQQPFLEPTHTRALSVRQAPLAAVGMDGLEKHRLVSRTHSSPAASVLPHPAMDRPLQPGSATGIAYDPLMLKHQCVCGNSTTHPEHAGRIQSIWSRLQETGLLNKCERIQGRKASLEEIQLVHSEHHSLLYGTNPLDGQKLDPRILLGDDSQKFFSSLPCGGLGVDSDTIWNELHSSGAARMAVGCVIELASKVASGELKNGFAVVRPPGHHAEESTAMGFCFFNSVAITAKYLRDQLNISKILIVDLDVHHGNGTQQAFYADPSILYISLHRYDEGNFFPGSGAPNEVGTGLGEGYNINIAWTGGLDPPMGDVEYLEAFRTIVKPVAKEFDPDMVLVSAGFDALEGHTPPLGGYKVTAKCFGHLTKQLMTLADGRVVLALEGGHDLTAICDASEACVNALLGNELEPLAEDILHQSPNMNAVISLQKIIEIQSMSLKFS
T1 sequence (Q9UBN7 whole entry): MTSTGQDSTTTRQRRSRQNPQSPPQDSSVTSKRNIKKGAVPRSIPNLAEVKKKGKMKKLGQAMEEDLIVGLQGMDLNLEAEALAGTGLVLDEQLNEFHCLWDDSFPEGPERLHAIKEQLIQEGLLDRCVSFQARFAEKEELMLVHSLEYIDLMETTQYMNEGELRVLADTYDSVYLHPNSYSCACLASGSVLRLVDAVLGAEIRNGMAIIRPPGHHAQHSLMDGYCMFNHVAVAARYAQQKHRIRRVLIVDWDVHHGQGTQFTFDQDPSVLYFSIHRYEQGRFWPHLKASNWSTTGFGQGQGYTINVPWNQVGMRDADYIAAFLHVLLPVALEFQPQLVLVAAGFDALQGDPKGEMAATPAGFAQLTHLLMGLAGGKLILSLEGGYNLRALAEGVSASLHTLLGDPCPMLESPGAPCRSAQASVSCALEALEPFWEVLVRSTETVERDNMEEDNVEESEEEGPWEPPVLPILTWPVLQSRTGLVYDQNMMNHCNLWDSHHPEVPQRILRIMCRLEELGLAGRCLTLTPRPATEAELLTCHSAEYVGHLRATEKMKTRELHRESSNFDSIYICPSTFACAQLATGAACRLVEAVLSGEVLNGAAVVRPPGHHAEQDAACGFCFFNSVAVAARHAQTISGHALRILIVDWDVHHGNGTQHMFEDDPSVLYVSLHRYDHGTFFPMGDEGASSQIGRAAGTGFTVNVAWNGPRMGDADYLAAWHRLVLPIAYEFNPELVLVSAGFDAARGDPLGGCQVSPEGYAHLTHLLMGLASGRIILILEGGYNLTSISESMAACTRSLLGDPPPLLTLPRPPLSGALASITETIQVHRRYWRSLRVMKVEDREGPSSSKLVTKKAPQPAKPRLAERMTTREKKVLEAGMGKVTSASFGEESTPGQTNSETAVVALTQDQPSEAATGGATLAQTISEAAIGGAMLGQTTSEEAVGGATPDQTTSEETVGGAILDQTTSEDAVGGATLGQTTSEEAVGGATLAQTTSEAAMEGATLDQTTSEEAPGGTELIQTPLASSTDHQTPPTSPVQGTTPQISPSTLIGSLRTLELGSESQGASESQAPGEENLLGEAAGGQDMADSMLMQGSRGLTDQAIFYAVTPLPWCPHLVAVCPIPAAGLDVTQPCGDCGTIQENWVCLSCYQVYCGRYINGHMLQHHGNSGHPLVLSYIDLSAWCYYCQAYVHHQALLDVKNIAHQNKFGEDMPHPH
T5 sequence (P56524 whole entry): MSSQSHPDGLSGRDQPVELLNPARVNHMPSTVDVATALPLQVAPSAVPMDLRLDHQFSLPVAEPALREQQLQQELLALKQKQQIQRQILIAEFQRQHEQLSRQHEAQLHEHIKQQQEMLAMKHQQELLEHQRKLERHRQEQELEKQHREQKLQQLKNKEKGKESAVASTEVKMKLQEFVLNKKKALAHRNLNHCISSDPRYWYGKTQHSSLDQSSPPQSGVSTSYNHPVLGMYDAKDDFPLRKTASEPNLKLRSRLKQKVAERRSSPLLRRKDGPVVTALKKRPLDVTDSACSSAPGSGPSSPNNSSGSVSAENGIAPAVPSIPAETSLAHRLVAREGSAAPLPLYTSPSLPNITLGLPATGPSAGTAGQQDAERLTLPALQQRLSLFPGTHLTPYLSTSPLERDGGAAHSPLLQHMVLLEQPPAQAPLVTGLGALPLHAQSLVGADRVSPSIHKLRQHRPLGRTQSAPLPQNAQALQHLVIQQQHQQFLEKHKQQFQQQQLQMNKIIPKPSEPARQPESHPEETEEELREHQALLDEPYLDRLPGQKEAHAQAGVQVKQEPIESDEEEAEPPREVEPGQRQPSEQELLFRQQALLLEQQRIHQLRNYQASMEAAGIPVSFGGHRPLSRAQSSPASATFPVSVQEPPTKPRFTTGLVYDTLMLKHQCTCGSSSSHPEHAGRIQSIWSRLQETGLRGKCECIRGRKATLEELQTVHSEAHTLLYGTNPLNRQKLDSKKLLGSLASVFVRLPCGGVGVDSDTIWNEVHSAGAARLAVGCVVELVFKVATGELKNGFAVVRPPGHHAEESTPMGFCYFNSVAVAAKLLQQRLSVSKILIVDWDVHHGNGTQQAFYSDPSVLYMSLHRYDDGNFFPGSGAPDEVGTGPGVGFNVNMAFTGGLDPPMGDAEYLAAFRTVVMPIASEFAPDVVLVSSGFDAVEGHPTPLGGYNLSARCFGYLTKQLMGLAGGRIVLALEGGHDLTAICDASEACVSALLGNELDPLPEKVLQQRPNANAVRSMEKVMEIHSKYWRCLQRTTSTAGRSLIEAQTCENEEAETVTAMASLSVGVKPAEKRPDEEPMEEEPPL
T6 sequence (Q9UQL6 whole entry): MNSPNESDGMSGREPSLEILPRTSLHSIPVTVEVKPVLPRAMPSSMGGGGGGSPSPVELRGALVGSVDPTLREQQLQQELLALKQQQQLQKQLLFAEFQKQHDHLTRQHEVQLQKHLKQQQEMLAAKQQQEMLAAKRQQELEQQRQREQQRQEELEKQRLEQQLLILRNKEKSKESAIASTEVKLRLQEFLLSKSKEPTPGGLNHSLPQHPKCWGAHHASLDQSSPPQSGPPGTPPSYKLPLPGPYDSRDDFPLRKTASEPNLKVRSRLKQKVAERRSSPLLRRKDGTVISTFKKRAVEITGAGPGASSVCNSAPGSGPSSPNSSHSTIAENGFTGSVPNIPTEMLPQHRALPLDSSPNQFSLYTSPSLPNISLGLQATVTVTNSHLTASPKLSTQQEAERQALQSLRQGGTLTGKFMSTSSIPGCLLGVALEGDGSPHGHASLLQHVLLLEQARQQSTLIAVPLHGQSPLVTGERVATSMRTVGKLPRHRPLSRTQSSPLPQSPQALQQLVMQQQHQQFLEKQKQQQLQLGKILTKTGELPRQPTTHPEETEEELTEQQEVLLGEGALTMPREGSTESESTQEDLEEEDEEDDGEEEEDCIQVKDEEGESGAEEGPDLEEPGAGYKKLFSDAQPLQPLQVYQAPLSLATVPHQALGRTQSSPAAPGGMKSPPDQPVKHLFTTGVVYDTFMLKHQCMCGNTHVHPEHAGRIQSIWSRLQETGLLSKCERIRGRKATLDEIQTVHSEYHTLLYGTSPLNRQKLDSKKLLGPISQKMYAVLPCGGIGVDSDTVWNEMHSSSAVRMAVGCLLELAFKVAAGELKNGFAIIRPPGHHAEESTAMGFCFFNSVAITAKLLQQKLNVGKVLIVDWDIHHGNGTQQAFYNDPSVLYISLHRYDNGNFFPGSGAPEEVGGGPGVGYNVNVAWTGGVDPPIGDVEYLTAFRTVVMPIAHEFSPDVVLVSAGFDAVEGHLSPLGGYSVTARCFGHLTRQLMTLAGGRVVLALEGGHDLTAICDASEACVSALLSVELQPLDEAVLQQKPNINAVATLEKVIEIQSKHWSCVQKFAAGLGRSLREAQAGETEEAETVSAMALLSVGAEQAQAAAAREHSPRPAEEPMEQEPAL

- IC50 (HDAC6 [1]; Nanosyn (Table 1A)): 84 nM
SMILES: O=C(NO)c1ccc(CNCC2CCCCC2)cc1 [Example 25, 4-(((cyclohexylmethyl)amino)methyl)-N-hydroxybenzamide]

- IC50 (HDAC6 [1]; Nanosyn (Table 1A)): 1190 nM
SMILES: CCCCCN(Cc1ccc(C(=O)NO)cc1)CC1CCC2CC1C2(C)C (centres unmarked) [Example 24, 4-((((6,6-dimethylbicyclo[3.1.1]heptan-2-yl)methyl)(pentyl)amino)methyl)-N-hydroxybenzamide]

- IC50 (HDAC6 [1]; Nanosyn (Table 1A)): 89 nM
SMILES: O=C(NO)c1ccc(CNCC23CC4CC(CC(C4)C2)C3)cc1F [Example 8, 4-((((Adamantan-1-yl)methyl)amino)methyl)-2-fluoro-N-hydroxybenzamide]

- IC50 (HDAC6 [1]; Nanosyn (Table 1A)): 1020 nM
SMILES: O=C(NO)c1ccc(CNCC23CC4CC(CC(C4)C2)C3)c(C(F)(F)F)c1 [Example 10, 4-((((adamantan-1-yl)methyl)amino)methyl)-3-trifluoromethyl-N-hydroxybenzamide]

- IC50 (HDAC6 [1]; Nanosyn (Table 1A)): 81 nM
SMILES: CN(Cc1ccc(C(=O)NO)cc1)CC12CC3CC(CC(C3)C1)C2 [Example 12, 4-(((((3r,5r,7r)-adamantan-1-yl)methyl)(methyl)amino)methyl)-N-hydroxybenzamide]

SMILES: O=C(CCCCCCNC(=O)c1cnc(N(c2ccccc2)c2ccccc2)nc1)NO [ACY-1215, ricolinostat]
- Brain-penetrant? [2]: −
- acetylation of H4K12 ([3]; ACY1215 5 μM): significantly increased
- amount of cellular acetyl-α-Tubulin ([3]; ACY1215 5 μM): increased

- IC50 (HDAC6 [1]; Nanosyn (Table 1A)): 12 nM
SMILES: O=C(NO)c1ccc(CNCC23CC4CC(CC(C4)C2)C3)c(F)c1 [Example 16, 4-(((((3r,5r,7r)-adamantan-1-yl)methyl)amino)methyl)-3-fluoro-N-hydroxybenzamide]

- IC50 (HDAC6 [1]; Nanosyn (Table 1A)): 13.6 nM
SMILES: O=C(NO)c1cc(F)c(CNCC23CC4CC(CC(C4)C2)C3)c(F)c1 [Example 9, 4-((((Adamantan-1-yl)methyl)amino)methyl)-3,5-difluoro-N-hydroxybenzamide]

SMILES: CC1(C)C2CCC(CNCc3ccc(C(=O)NO)cc3)C1C2 (centres unmarked) [Example 23, 4-((((6,6-dimethylbicyclo[3.1.1]heptan-2-yl)methyl)amino)methyl)-N-hydroxybenzamide]
- IC50 (HDAC6 [1]; Nanosyn (Table 1A)): 149 nM

- Brain-penetrant? [2]: +/−
SMILES: CN1CCc2c(c3ccccc3n2Cc2ccc(C(=O)NO)cc2)C1 [Tubastatin A]
- Histone acetylation (H3K9 and H4K12) [3]: remained unaltered
- amount of cellular acetyl-α-Tubulin ([3]; ACY1215 5 μM): increased
- amount of bound radioactivity (radiolabeled Example 2) on rat brain slices (HDAC6 [4]): reduce the amount of bound radioactivity to the same background as 10 μM Example 1

- IC50 (HDAC6 [1]; Nanosyn (Table 1A)): 35 nM
SMILES: O=C(NO)c1ccc(CNCC23CC4CC(CC(C4)C2)C3)cc1 [Example 17, 4-(((((3r,5r,7r)-adamantan-1-yl)methyl)amino)methyl)-N-hydroxybenzamide]

- IC50 (HDAC6 [1]; Nanosyn (Table 1A)): 323 nM
SMILES: CC(CC12CC3CC(CC(C3)C1)C2)NCc1ccc(C(=O)NO)cc1 (centres unmarked) [Example 19, 4-(((1-(adamantan-1-yl)propan-2-yl)amino)methyl)-N-hydroxybenzamide]

- IC50 (HDAC6 [1]; Nanosyn (Table 1A)): 574 nM
SMILES: Cc1cc(C(=O)NO)ccc1CNCC12CC3CC(CC(C3)C1)C2 [Example 11, 4-((((adamantan-1-yl)methyl)amino)methyl)-3-methyl-N-hydroxybenzamide]

SMILES: CN(Cc1ccc(C(=O)NO)cc1[18F])CC12CC3CC(CC(C3)C1)C2 [Example 2, 4-((((Adamantan-1-yl)methyl)(methyl)amino)methyl)-3-[^18F]fluoro-N-hydroxybenzamide]
- brain uptake and retention (PET/CT imaging in rats; radiotracer, PET): excellent
- off-rate in preclinical PET (PET/CT imaging in rats; rat, in vivo): slow

- IC50 (HDAC6 [1]; Nanosyn (Table 1A)): 121 nM
SMILES: CCC(N(C)Cc1ccc(C(=O)NO)cc1)C12CC3CC(CC(C3)C1)C2 (centres unmarked) [Example 22, 4-(((1-((3r,5r,7r)-adamantan-1-yl)propyl)(methyl)amino)methyl)-N-hydroxybenzamide]

- IC50 (HDAC6 [1]; Nanosyn (Table 1A)): 213 nM
SMILES: CCC(NCc1ccc(C(=O)NO)cc1)C12CC3CC(CC(C3)C1)C2 (centres unmarked) [Example 21, 4-(((1-((3r,5r,7r)-adamantan-1-yl)propyl)amino)methyl)-N-hydroxybenzamide]

- IC50 (HDAC6 [1]; Nanosyn (Table 1A)): 74.8 nM
SMILES: O=C(NO)c1ccc(CNCC23CC4CC(CC(C4)C2)C3)c(Cl)c1 [Example 14, 4-((((adamantan-1-yl)methyl)amino)methyl)-3-chloro-N-hydroxybenzamide]

SMILES: CC(=O)Nc1ccc(C(=O)Nc2ccccc2N)cc1 [CI-994, tacedinaline]
- Histone acetylation (H3K9 and H4K12) [3]: significantly increased
- amount of cellular acetyl-α-Tubulin ([3]; ACY1215 5 μM): did not increase

- IC50 (HDAC1 [5]): 6.2 nM
- IC50 (HDAC2 [6]): 22 nM
- IC50 (HDAC3 [7]): 7.1 nM
- IC50 (HDAC4 [8]; [26]): > 1000 nM
- inhibition at 1 µM (HDAC4 [8]; at 1 μM, BPS Biosciences, read-out: HDAC4 Percentage Inhibition): 39%
- IC50 (HDAC5 [9]): 980 nM
- IC50 (HDAC6 [10]): 48 nM
- IC50 (HDAC7 [11]): > 1000 nM
- IC50 (HDAC8 [12]): > 1000 nM
- IC50 (HDAC9 [13]; [26]): > 1000 nM
- inhibition at 1 µM (HDAC9 [13]; at 1 μM, BPS Biosciences, read-out: HDAC9 Percentage Inhibition): 12%
- IC50 (HDAC10 [14]): 8.9 nM
- IC50 (HDAC11 [15]; [26]): > 1000 nM
- inhibition at 1 µM (HDAC11 [15]; at 1 μM, BPS Biosciences, read-out: HDAC11 Percentage Inhibition): 17%
- IC50 (HDAC4 [16]): 240 nM
- IC50 (HDAC5 [17]): 75 nM
- IC50 (HDAC6 [1]; IC50 measured by Nanosyn): 1.8 nM
- IC50 (HDAC7 [18]): > 1000 nM
- IC50 (HDAC8 [19]): 750 nM
- IC50 (HDAC9 [20]): > 1000 nM
- IC50 (HDAC1 [21]): 1.2 nM
- IC50 (HDAC10 [22]): 2 nM
- IC50 (HDAC2 [23]): 4 nM
- IC50 (HDAC3 [24]): 0.3 nM
- IC50 (HDAC11 [25]): > 1000 nM
SMILES: CN(Cc1ccc(/C=C/C(=O)NO)cc1)CC12CC3CC(CC(C3)C1)C2 [Martinostat, martinostat]

- IC50 (HDAC6 [1]; Nanosyn (Table 1A)): 59.9 nM
SMILES: O=C(NO)c1ccc(CNCC23CC4CC(CC(C4)C2)C3)c(Br)c1 [Example 15, 4-((((adamantan-1-yl)methyl)amino)methyl)-3-bromo-N-hydroxybenzamide]

- IC50 (HDAC6 [1]; Nanosyn (Table 1A)): 1380 nM
SMILES: O=C(NO)c1ccc(CNC23CC4CC(CC(C4)C2)C3)cc1 [Example 18, 4-((((3s,5s,7s)-adamantan-1-yl)amino)methyl)-N-hydroxybenzamide]

- IC50 (HDAC6 [1]; Nanosyn (Table 1A)): 26.7 nM
SMILES: O=C(NO)c1ccc(CNCC23CC4CC(CC(C4)C2)C3)nc1 [Example 13, 6-((((adamantan-1-yl)methyl)amino)methyl)-N-hydroxynicotinamide]
